{
  "source": "patent US20150216865A1",
  "about": "“METHODS OF TREATING A BRUTON'S TYROSINE KINASE DISEASE OR DISORDER” (Celgene Avilomics Research, Inc., priority 2012, published 2015)",
  "key": {"Solubility": {"assay": "Solubility", "format": "physicochemical"}, "Btk": {"target": "T1, Btk (Mus musculus, UniProt P35991)", "T1 construct": "from tissue; host or cells: mouse spleen", "assay": "Btk occupancy in spleen lysates of CIA mice", "format": "in vivo", "method": "Spleen Homogenization: Spleens were harvested from mice, frozen immediately in liquid nitrogen and stored at −80° C. To generate spleen lysates, each spleen was sliced in half and lysed using a Precellys 24 Bead Homogenizer in 500 μL of BioRad Bio-Plex Lysis Buffer plus protease inhibitors. Supernatant was transferred to a fresh microfuge tube and stored frozen at −80° C. until analysis.\nBtk Target Site Occupancy ELISA: An ELISA method for the detection of free uninhibited Btk in mouse, rat, dog, monkey, and human lysates was developed at Celgene Avilomics Research and a validation of this method in human B cell lysate was performed by a CLIA Certified laboratory (Cambridge Biomedical Laboratories, Boston, Mass.) The parameters that were assessed included: accuracy, linearity, dilution, precision (intra and inter-assay), stability, reference range, freeze-thaw cycles, reportable range, specificity, sensitivity, and carryover. […] Standards and samples were transferred to a streptavidin-coated 96-well ELISA plate and mixed while shaking for 1 h at room temperature. […] After wash, goat α-mouse-HRP (1:5000 dilution in PBS+0.05% Tween-20+0.5% BSA) was added and incubated for 1 h at room temperature. The ELISA was developed with addition of tetramethyl benzidine (TMB) followed by Stop Solution and read at OD 450 nm.\nEstablished Collagen Induced Arthritis Model: Experiments were carried out at Bolder Biopath, Boulder, Colo. All experiments were carried out in compliance with regulations of the Institutional Animal Care and Use Committee and were conducted in accordance with principles and procedures dictated by the highest standards of humane animal care. Dba1 mice were injected at the base of the tail with 150 μL of Freund's Complete Adjuvant (Sigma) containing bovine type II collagen (Elastin Products, Owensville, Mo.) (2 mg/ml) on day 0 and again on day 21. […] Randomization into each group was done after swelling was obviously established in at least one paw, and attempts were made to assure approximately equal mean scores across the groups at the time of enrollment. […] Treatment continued daily (QD at 24 h intervals) through arthritis day 14. […] Clinical scores were assessed for each of the paws on study arthritis days 1-15 using the following scoring system: 0=normal, 1=one hind or fore paw joint affected or minimal diffuse erythema and swelling, 2=two hind or fore paw joints affected or mild diffuse erythema and swelling, 3=three hind or fore paw joints affected or moderate diffuse erythema and swelling, 4=marked diffuse erythema and swelling or =four digit joints affected, 5=severe diffuse erythema and severe swelling entire paw, unable to flex digits."}, "male NOD mice [1]": {"tested_on": "male NOD mice", "assay": "NOD mouse model, lachrymal gland secretion (cotton thread test)", "format": "in vivo", "conditions": "besylate", "method": "(§1) Non-Obese Diabetic Mouse (NOD) Model of Sjogren's Syndrome. Male Non Obese Diabetic (NOD) mice from the KWS BioTest NOD colony and male BALB/c mice were randomly allocated to experimental groups and allowed to acclimatise for one week prior to the beginning of the study. From six weeks of age, animals were treated according to the administration schedule in Table 5, below. Each group consisted of n=12 animals. The administration volume was 15 ml/kg from 6-12 weeks of age. The administration volume was then decreased to 10 ml/kg from 13-20 weeks of age. The vehicle was distilled water pH 3.0-3.5 for Group 7. The vehicle was 0.5% methylcellulose and 0.25% Tween® 80 for all other groups.\nMeasurement of lachrymal gland secretion. Lachrymal gland secretion was measured every other week from six weeks of age using a cotton thread test. Briefly, animals were anaesthetised and a fluorescein-stained cotton thread was inserted under the eye lid in the medial canthus region and held in place for two minutes. Results for each group were graphed and presented with SEM's.\nLachrymal Gland Secretion. Lachrymal gland secretion was measured by the cotton thread test. Data are expressed as millimetres per gram bodyweight. Data from this readout are indicative of inflammatory changes in the lachrymal gland, but significant changes are typically only seen from weeks 18 onwards in NOD mice. Data were analysed by two-way ANOVA for repeated measures followed by Dunnett's post-test for multiple comparisons to the vehicle-treated group and presented as mean±SEM (FIG. 14)."}, "male NOD mice [2]": {"tested_on": "male NOD mice", "assay": "NOD mouse model, salivary gland secretion (pilocarpine-induced salivation assay)", "format": "in vivo", "conditions": "all treatment groups", "method": "as §1\nMeasurement of salivary gland secretion. Salivary gland secretion was measured every other week from six weeks of age. […] The weight of saliva collected was then measured using digital scales. […]\nSalivary Gland Secretion. Salivary gland secretion was measured using the pilocarpine-induced salivation assay. Data are expressed as milligram of saliva per gram bodyweight. Data from this readout are indicative of inflammatory changes in the salivary glands, but significant changes are typically only seen from weeks 18 onwards in NOD mice. […] Data were analysed by two-way ANOVA followed by Dunnett's post-test for multiple comparisons to the vehicle-treated group (FIG. 16)."}, "KC": {"tested_on": "KC", "assay": "Inflammatory chemokine and cytokine analysis in CIA mice, KC", "format": "in vivo, mouse", "source_text": "Inflammatory Chemokine and Cytokine Analysis: At the termination of the CIA study, mice were sacrificed and blood was harvested via cardiac punch using EDTA as an anticoagulant. […] Levels of various mouse cytokines in plasma were quantified using Bioplex® Suspension Array System according to manufacturer's instruction (BioRad, mTNFa (171-G5023M), mIL-6 (171-G5007M), mKC (171-G5018M), mIFNg (171-G5017M), mIL-17 (Z60-00006Z2), mIL-1β (171-G5002M), mMCP-1 (171-G5019M)."}},
  "note": "“Also recorded” adds a separate entry of the source. Like-named read-outs stand apart in the source and are kept apart here. Marks after values point to notes of the source that are not given here.",
  "data": [
    {"smiles": "C=CC(=O)Nc1cccc(Nc2nc(Nc3ccc(OCCOC)cc3)ncc2F)c1", "note": "[Compound 1 besylate, N-(3-(5-fluoro-2-(4-(2-methoxyethoxyl)phenylamino)pyrimidin-4-ylamino)phenyl)acrylamide besylate]", "values": [
      {"measurement": "solubility", "setting": "Solubility; aqueous solution, aqueous buffer, approximately pH 3.0, read-out: maximum aqueous solubility", "result": 400, "unit": "µg/mL"},
      {"measurement": "solubility", "setting": "Solubility; ethanol, organic solvent or mixture, read-out: solubility in ethanol", "result": "~10000", "unit": "µg/mL"},
      {"measurement": "solubility", "setting": "Solubility; water, read-out: solubility in water", "result": "~160", "unit": "µg/mL"},
      {"measurement": "Btk occupancy in spleen", "setting": "Btk; 30 mg/kg, 2 hours after last dose, besylate", "result": 95, "unit": "%"},
      {"measurement": "drug-free Btk protein re-synthesized, % of pre-dose levels", "setting": "Btk; 24 hours after a 10 mg/kg dose", "result": "approximately 60%"},
      {"measurement": "Btk occupancy in spleen", "setting": "Btk; 24 hours after the 3 mg dose", "result": 19, "unit": "%"},
      {"measurement": "Btk occupancy in spleen", "setting": "Btk; 24 hours, dose level 10 mg", "result": "> 40", "unit": "%"},
      {"measurement": "Btk occupancy in spleen", "setting": "Btk; 24 hours, dose level 30 mg", "result": "> 40", "unit": "%"},
      {"measurement": "receptor occupancy at 3 mg/kg", "setting": "Btk; mouse, 3 mg/kg, 2 hours after last dose", "result": 34, "unit": "%"},
      {"measurement": "receptor occupancy at 10 mg/kg", "setting": "Btk; mouse, 10 mg/kg, 2 hours after last dose", "result": 84, "unit": "%"},
      {"measurement": "receptor occupancy at 30 mg/kg", "setting": "Btk; mouse, 30 mg/kg, 2 hours after last dose", "result": 97, "unit": "%"},
      {"measurement": "lachrymal gland secretion vs vehicle", "setting": "male NOD mice [1]; 30 mg/kg SID, 10, 18 and 20 weeks of age", "result": "significantly higher; also recorded: statistically significant increase"},
      {"measurement": "lachrymal gland secretion vs vehicle", "setting": "male NOD mice [1]; 50 mg/kg twice daily, 6, 8, 10, 18 and 20 weeks of age", "result": "significantly higher; also recorded: statistically significant increase"},
      {"measurement": "lachrymal gland secretion vs vehicle", "setting": "male NOD mice [1]; 100 mg/kg SID, 8, 10, 12, 16, 18 and 20 weeks of age", "result": "significantly higher; also recorded: statistically significant increase"},
      {"measurement": "lachrymal gland secretion vs vehicle", "setting": "male NOD mice [1]; ad libitum 0.16 mg/ml in drinking water, 10, 16, 18 and 20 weeks of age", "result": "significantly higher; also recorded: statistically significant increase"},
      {"measurement": "salivary gland secretion between groups", "setting": "male NOD mice [2]", "result": "No significant differences"},
      {"measurement": "KC mean", "setting": "KC; 3 mg/kg", "result": 62.0, "unit": "pg/mL"},
      {"measurement": "KC mean", "setting": "KC; 10 mg/kg", "result": "31.1* pg/mL"},
      {"measurement": "KC mean", "setting": "KC; 30 mg/lkg", "result": "17.5* pg/mL"}
    ]}
  ]
}
